Data published in ChEMBL document CHEMBL1201862, “PubChem BioAssay data set” (2004).
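Dose response: 5 concentrations. Exposure: 48 h. Format: 96-well plates. Endpoint: linear interpolation; highest concentration if not reached. Abbreviation: GI50, concentration required for 50% inhibition of growth.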 Activity calls are given as the source filed them. No stated cut-off is given here; in the data, active = GI50 up to about 1.1 µM and inactive = higher.

Experiments:
Assay in all cases: inhibition of tumour cell growth, NCI panel, 48 h
[1] = system: COLO 205
[2] = system: HOP-92
[3] = system: LOX IMVI
[4] = system: NCI-H23
[5] = system: NCI-H460
[6] = system: OVCAR-3
[7] = system: RPMI-8226
[8] = system: SF-268
[9] = system: SF-539
[10] = system: SK-MEL-2
[11] = system: SK-OV-3
[12] = system: SN12C
[13] = system: SR
[14] = system: TK-10
[15] = system: UACC-257
[16] = system: UACC-62
[17] = system: DU-145
[18] = system: MDA-MB-231
[19] = system: PC-3

Row | Structure (SMILES) | GI50 [1] | GI50 [2] | GI50 [3] | GI50 [4] | GI50 [5] | GI50 [6] | GI50 [7] | GI50 [8] | GI50 [9] | GI50 [10] | GI50 [11] | GI50 [12] | GI50 [13] | GI50 [14] | GI50 [15] | GI50 [16] | GI50 [17] | GI50 [18] | GI50 [19]
1 | N#CCCOCN(CO)c1nc(N(CO)COCCC#N)nc(N(CO)COCCC#N)n1 | 18.4 µM (inactive) | 23.4 µM (inactive) | 31.8 µM (inactive) | 31.2 µM (inactive) | 29.7 µM (inactive) | 25.7 µM (inactive) | 22.5 µM (inactive) | 23.1 µM (inactive) | 2.5 µM (inactive) | 19 µM (inactive) | > 100 µM (inactive) | 20.4 µM (inactive) | 17.3 µM (inactive) | 34 µM (inactive) | 28 µM (inactive) | – | – | – | –
2 | CC1OC(OCC2COC(O)(Oc3c(-c4ccc(O)c(O)c4)oc4cc(O)cc(O)c4c3=O)C(O)C2O)C(O)C(O)C1O (stereo not drawn) | > 100 µM (inactive) | > 100 µM (inactive) | > 100 µM (inactive) | > 100 µM (inactive) | > 100 µM (inactive) | > 100 µM (inactive) | > 100 µM (inactive) | > 100 µM (inactive) | > 100 µM (inactive) | – | > 100 µM (inactive) | > 100 µM (inactive) | > 100 µM (inactive) | > 100 µM (inactive) | > 100 µM (inactive) | > 100 µM (inactive) | – | – | –
3 | OCCNCO | > 100 µM (inactive) | > 100 µM (inactive) | > 100 µM (inactive) | > 100 µM (inactive) | > 100 µM (inactive) | > 100 µM (inactive) | > 100 µM (inactive) | > 100 µM (inactive) | > 100 µM (inactive) | > 100 µM (inactive) | > 100 µM (inactive) | > 100 µM (inactive) | > 100 µM (inactive) | > 100 µM (inactive) | > 100 µM (inactive) | > 100 µM (inactive) | – | – | –
4 | O=C(CSCC(=O)N/N=C/c1cccc(OCc2ccccc2)c1)N/N=C/c1cccc(OCc2ccccc2)c1 | – | 36.7 µM (inactive) | 36.1 µM (inactive) | 36.6 µM (inactive) | 34.4 µM (inactive) | 39.5 µM (inactive) | 8.91 µM (inactive) | > 80.2 µM (inactive) | > 100 µM (inactive) | 41.3 µM (inactive) | > 100 µM (inactive) | 35.5 µM (inactive) | – | 33.3 µM (inactive) | 32.3 µM (inactive) | > 92.3 µM (inactive) | > 100 µM (inactive) | > 100 µM (inactive) | 20 µM (inactive)
5 | CC(=O)c1ccc(N2CCN(C3=CC(=O)c4c(O)ccc(O)c4C3=O)CC2)cc1 | 35.5 µM (inactive) | 25.8 µM (inactive) | – | 34 µM (inactive) | 48.5 µM (inactive) | 39.9 µM (inactive) | > 100 µM (inactive) | 33 µM (inactive) | > 100 µM (inactive) | – | – | – | 22.5 µM (inactive) | 61 µM (inactive) | > 100 µM (inactive) | 31.4 µM (inactive) | > 100 µM (inactive) | 13.4 µM (inactive) | 66.1 µM (inactive)
6 | Cc1cc(Br)ccc1/N=N/C1C(=O)ON=C1c1ccccc1 (stereo not drawn) | 16 µM (inactive) | > 100 µM (inactive) | 63.4 µM (inactive) | > 100 µM (inactive) | 55 µM (inactive) | > 100 µM (inactive) | 28.4 µM (inactive) | > 100 µM (inactive) | > 100 µM (inactive) | > 100 µM (inactive) | > 100 µM (inactive) | > 100 µM (inactive) | 48 µM (inactive) | 69.3 µM (inactive) | > 100 µM (inactive) | > 100 µM (inactive) | – | – | –
7 | O=[N+]([O-])C1C2C=CC(C2)[C@H]1c1ccco1 (stereo partly drawn) | > 100 µM (inactive) | 0.259 µM (active) | > 100 µM (inactive) | 0.384 µM (active) | > 100 µM (inactive) | > 100 µM (inactive) | – | > 100 µM (inactive) | > 100 µM (inactive) | > 100 µM (inactive) | > 100 µM (inactive) | > 100 µM (inactive) | > 100 µM (inactive) | > 100 µM (inactive) | > 100 µM (inactive) | > 100 µM (inactive) | – | – | –
8 | CC1=NN(c2ccccc2)C(=O)C1C(=O)C(=O)Nc1ccc(C)cc1C (stereo not drawn) | > 100 µM (inactive) | > 94.2 µM (inactive) | > 100 µM (inactive) | > 100 µM (inactive) | > 100 µM (inactive) | > 100 µM (inactive) | > 100 µM (inactive) | > 100 µM (inactive) | > 100 µM (inactive) | > 100 µM (inactive) | > 100 µM (inactive) | > 100 µM (inactive) | > 100 µM (inactive) | > 100 µM (inactive) | > 100 µM (inactive) | > 100 µM (inactive) | > 100 µM (inactive) | – | > 100 µM (inactive)
9 | CCCCc1c2c(nc3c1CCC/C3=C\c1ccccc1)C(=O)CCC2 | 22.8 µM (inactive) | 22 µM (inactive) | 17.6 µM (inactive) | 24.2 µM (inactive) | 34.2 µM (inactive) | 15.1 µM (inactive) | 13.7 µM (inactive) | 21.3 µM (inactive) | 18.4 µM (inactive) | 17.1 µM (inactive) | 24.8 µM (inactive) | 19.6 µM (inactive) | 7.24 µM (inactive) | 24.5 µM (inactive) | 17 µM (inactive) | 22.6 µM (inactive) | – | – | –
10 | C(=C\C(Sc1ccccc1)c1ccccc1)/NNC1=NN=C(c2ccccc2)C(c2ccccc2)N1 (stereo not drawn) | 32.2 µM (inactive) | 16.3 µM (inactive) | 51.9 µM (inactive) | 31.2 µM (inactive) | 30.3 µM (inactive) | 33.4 µM (inactive) | 16.4 µM (inactive) | > 100 µM (inactive) | 65.3 µM (inactive) | 74 µM (inactive) | > 100 µM (inactive) | 55 µM (inactive) | 25.9 µM (inactive) | 61.2 µM (inactive) | > 100 µM (inactive) | 21.5 µM (inactive) | – | – | –
11 | CSc1nc2nccnc2c(=O)[nH]1 | > 100 µM (inactive) | 96.2 µM (inactive) | > 100 µM (inactive) | > 100 µM (inactive) | > 100 µM (inactive) | – | > 100 µM (inactive) | > 100 µM (inactive) | – | > 100 µM (inactive) | > 100 µM (inactive) | > 100 µM (inactive) | > 100 µM (inactive) | > 100 µM (inactive) | > 100 µM (inactive) | > 100 µM (inactive) | – | – | –
12 | N#CC(C(=O)C(=O)Nc1ccccc1)c1ccccc1 (stereo not drawn) | – | > 100 µM (inactive) | > 100 µM (inactive) | > 100 µM (inactive) | – | > 100 µM (inactive) | > 100 µM (inactive) | > 100 µM (inactive) | > 100 µM (inactive) | > 100 µM (inactive) | > 100 µM (inactive) | > 100 µM (inactive) | > 100 µM (inactive) | > 100 µM (inactive) | > 100 µM (inactive) | > 100 µM (inactive) | – | – | –
13 | CS(=O)(=O)C1(Br)S(=O)(=O)OCCOS1(=O)=O | > 100 µM (inactive) | > 100 µM (inactive) | > 100 µM (inactive) | > 100 µM (inactive) | > 100 µM (inactive) | > 100 µM (inactive) | > 100 µM (inactive) | > 100 µM (inactive) | > 100 µM (inactive) | > 100 µM (inactive) | > 100 µM (inactive) | > 100 µM (inactive) | > 100 µM (inactive) | > 100 µM (inactive) | > 100 µM (inactive) | > 100 µM (inactive) | – | – | –
